Experimental data: patent US20220220533A1, “METHOD OF DIAGNOSING AND MONITORING SUBSTANCE ADDICTION OR BEHAVIORAL ADDICTION USING C-KIT BIOMARKER” (Wuhan University, priority 2019, published 2022)
Structures can show the parent of a compound that is named as a salt.

Legend:
[1] = system: high-sugar and high-fat food CPP; assay: High-sugar and high-fat food CPP after environmental or unconditioned re-exposure, intraperitoneal administration; conditions: rats
[2] = system: high-sugar and high-fat food CPP; assay: Formation of conditioned place preference on high-sugar and high-fat food in rats; format: in vivo, rat; conditions: imatinib mesylate 1, 5, 10, 20 and 30 mg/kg i.p.
c-Kit [3] = biological target: T1, c-Kit (Rattus norvegicus, UniProt F7EWK5); format: in vivo; conditions: gambling rats, imatinib mesylate 30 mg/kg
T1 construct: from tissue; host or cells: rat brain (nucleus accumbens, prefrontal cortex, hippocampus and other regions)
T1 sequence (F7EWK5 26-978): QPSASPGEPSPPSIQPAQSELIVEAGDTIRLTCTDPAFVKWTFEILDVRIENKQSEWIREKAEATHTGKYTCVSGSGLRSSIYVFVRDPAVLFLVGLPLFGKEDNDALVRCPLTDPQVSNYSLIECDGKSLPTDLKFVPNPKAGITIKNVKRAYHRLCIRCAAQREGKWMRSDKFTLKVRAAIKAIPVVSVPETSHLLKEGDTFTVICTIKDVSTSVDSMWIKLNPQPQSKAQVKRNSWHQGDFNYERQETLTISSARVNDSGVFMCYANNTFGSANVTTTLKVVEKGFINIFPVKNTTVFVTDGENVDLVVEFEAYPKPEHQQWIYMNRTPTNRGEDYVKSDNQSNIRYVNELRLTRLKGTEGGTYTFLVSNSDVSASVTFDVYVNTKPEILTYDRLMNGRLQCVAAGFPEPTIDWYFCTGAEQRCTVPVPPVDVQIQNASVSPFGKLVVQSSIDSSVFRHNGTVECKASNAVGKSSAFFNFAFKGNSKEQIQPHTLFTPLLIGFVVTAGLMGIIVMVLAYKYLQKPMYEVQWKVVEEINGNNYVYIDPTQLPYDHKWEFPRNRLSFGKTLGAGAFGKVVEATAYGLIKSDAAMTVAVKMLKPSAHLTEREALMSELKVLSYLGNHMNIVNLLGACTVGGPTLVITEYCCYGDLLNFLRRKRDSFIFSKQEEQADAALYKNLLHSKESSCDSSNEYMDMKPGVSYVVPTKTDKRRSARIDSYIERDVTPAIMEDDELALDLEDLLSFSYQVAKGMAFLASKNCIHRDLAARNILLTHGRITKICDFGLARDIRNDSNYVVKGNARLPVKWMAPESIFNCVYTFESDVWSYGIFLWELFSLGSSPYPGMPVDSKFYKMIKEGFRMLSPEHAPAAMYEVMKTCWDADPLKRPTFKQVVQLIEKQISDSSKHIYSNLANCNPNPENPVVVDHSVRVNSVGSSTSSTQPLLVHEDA

gambling behavior [4] = assay: Dose effect on gambling behavior in rats under gambling task (rGT) conditions; format: in vivo, rat
Description: A gambling behavior model of rats was established: firstly, the animals were acclimated to the operating chamber twice a day for 30 min each time, during which sucrose granules were placed on the reaction wells and the food bank. After acclimation, animals were trained to poke their noses into one of the luminescent reaction wells within 10 s to obtain a reward. Spatial positions of the stimulus light would appear in different wells of wells 1, 2, 4 and 5 in different experiments. Each session consisted of 100 trials lasting approximately 30 min. Animals were then trained 7 times for forced-choice rGT (or an rGT variant of the control group), and then underwent a completely free-choice task. This ensured that all animals had the same experience under the four reinforcement conditions and were designed to prevent simple prejudice against specific wells. The percentage of trials in which animals chose a particular option was calculated according to the formula in reference: Choices of a particular option/Total choices of 100 (Di C P, Manvich D F, Pushparaj A, et al. Effects of disulfiram on choice behavior in a rodent gambling task: association with catecholamine levels[J]. Psychopharmacology, 2018, 235(1):23-35). Each experiment lasted 30 min and experimental subjects responded with a nose poke on the illuminated food bank, which turned off the tray light and triggered the initiation of a 5-s intertrial interval (ITT). At the end of the ITI, wells 1, 2, 4 and 5 were illuminated for 10 s (in the forced-choice version of the task used in the training, only one well was illuminated).
Explanation to the above table: four wells in the experimental apparatus were respectively provided with different reward probability and penalty probability, as well as corresponding reward sucrose amount and penalty time.
After training, the rats were given with drugs. […] The rats in the direct administration group were directly given with imatinib (1, 5, 10, 20 and 30 mg/kg, ip) or saline (1 mL/kg, ip) without being placed in the experimental device. […]

c-Kit [5] = biological target: T1, c-Kit; format: in vivo; conditions: rats, imatinib mesylate 30 mg/kg i.p. 30 min before morphine or saline
Description: (§1) After 1 h, anesthesia and perfusion were performed, a brain tissue was fixed with a 4% paraformaldehyde solution, dehydrated in alcohol solutions with different concentrations, hyalinized in xylene, embedded in paraffin, and then cut into 3 μm-thick sections. Tissues were deparaffinized, boiled in 0.01M sodium citrate buffer (pH 6.0) for 10-15 min, and cooled in cold water to room temperature.

morphine CPP [6] = conditions: mice
morphine CPP [7] = assay: Formation of morphine conditioned place preference (CPP) in mice; format: in vivo; conditions: imatinib mesylate 45 mg/kg i.p. 30 min before morphine 15 mg/kg s.c., test day 10
gambling behavior [8] = assay: Rat gambling behavior model (rGT), Example 9; format: in vivo; conditions: rats, imatinib mesylate 30 mg/kg
Description: A gambling behavior model of rats was established: animals were first accustomed to the operating chambers twice a day for 30 min each time, during which sucrose granules were placed on the reaction wells and the food banks. Animals were then trained to poke their noses into one of the luminescent reaction wells within 10 s to obtain a reward. Space positions of the stimulus light were varied in different experiments of wells 1, 2, 4 and 5. Each session consisted of 100 trials lasting approximately 30 min. After 5 trials, animals continued to complete 100 trials. Animals were then trained 7 times for forced-choice rGT (or an rGT variant of the control group), followed by a completely free-choice task, ensuring that all animals had the same experience in the four reinforcement conditions and were designed to prevent simple prejudice against specific wells. The percentage of animals selected for a particular option trial was calculated according to the formula […].

[9] = system: high-sugar and high-fat food CPP; assay: High-sugar and high-fat food CPP after environmental or unconditioned re-exposure, nucleus accumbens microinjection; format: in vivo, rat; conditions: rats
c-Kit [10] = format: in vivo, rat; conditions: rats, 1 h after acute morphine 10 mg/kg s.c., compared with normal rats
Description: as §1

c-Kit [11] = format: in vivo, rat
Description: Under the guidance of NIR-II fluorescence imaging, dynamic changes of the brain regions of the rats were dynamically monitored and photographed at 2 h, 6 h, 8 h and 12 h with a near-infrared II region imaging camera, respectively, so as to indicate changes in a phosphorylation level of c-Kit protein.

[12] = rats exposed to the environment, 10, 20 and 30 mg/kg ip, compared to control group

SMILES | ignition of CPP ([1]; i.p. administration, small amount of high-sugar and high-fat food, after 2 weeks) | food-seeking behaviors induced by environment and food ([1]; imatinib mesylate 1, 5, 10, 20 and 30 mg/kg i.p. after re-exposure) | formation of conditioned place preference on high-sugar and high-fat food [2] | phosphorylation level of c-Kit (c-Kit [3]) | effect on gambling choice in rGT (gambling behavior [4]; rats as directly administered, any dose (1-30 mg/kg ip)) | choice at P4 in rGT (gambling behavior [4]; [12]) | optimal choice at P2 in rGT (gambling behavior [4]; [12]) | phosphorylation activity of c-Kit protein in nucleus accumbens, prefrontal cortex and hippocampus (c-Kit [5]) | CPP Score after re-exposure to environmental cues (morphine CPP [6]; imatinib mesylate 45 mg/kg i.p. 30 min before re-exposure) | ignition of morphine CPP (morphine CPP [6]; small dose of morphine 5 mg/kg i.p., after 1 week) | formation of conditioned place preference (CPP score) (morphine CPP [7]) | gambling behavior (gambling behavior [8]) | food-seeking behavior caused by the environment and food ([9]; nucleus accumbens microinjection 4 μg/0.5 μL) | ignition of CPP ([9]; nucleus accumbens microinjection, after 2 weeks) | phosphorylation level of c-Kit protein in nucleus accumbens regions (c-Kit [10]) | phosphorylation level of c-Kit protein in prefrontal cortex, hippocampus and other regions (c-Kit [10]) | time at which enrichment intensity of the probes reached a peak (c-Kit [11]; rats after acute morphine administration) [h] | phosphorylation activity of c-Kit in the brains of the rats (brain brightness) (c-Kit [11]; rats, acute morphine 10 mg/kg s.c., contrast with normal saline group)
Cc1ccc(NC(=O)c2ccc(CN3CCN(C)CC3)cc2)cc1Nc1nccc(-c2cccnc2)n1 [imatinib mesylate] | not ignited | inhibited | inhibited | significantly inhibited | no significant effect | reduced | significantly increased | significantly decreased | significantly reduced | not ignited | could not be formed normally | significantly eliminated | inhibited | not ignited |  |  |  | 
CN1CC[C@]23c4c5ccc(O)c4O[C@H]2[C@@H](O)C=C[C@H]3[C@H]1C5 [morphine] |  |  |  |  |  |  |  |  |  |  |  |  |  |  | significantly increased | no significant change | 6 | significantly enhance
